Data as given in patent US20180057507A1, “INHIBITORS OF DUAL LEUCINE ZIPPER (DLK) KINASE FOR THE TREATMENT OF DISEASE” (Board of Regents, The University of Texas System, priority 2016, published 2018).

molecular target: T1, human DLK (Homo sapiens, UniProt Q12852); assay: DLK Kd Determinations (KINOMEscan KdELECT, DiscoveRx); parameters: full length of human DLK (amino acids 1-859); host or cells: transiently transfected HEK293 cells; unpurified extract; conditions: fusion protein of full length human DLK (amino acids 1-859) and NFkB DNA binding domain; qPCR readout; duplicate
T1 sequence (Q12852 1-859): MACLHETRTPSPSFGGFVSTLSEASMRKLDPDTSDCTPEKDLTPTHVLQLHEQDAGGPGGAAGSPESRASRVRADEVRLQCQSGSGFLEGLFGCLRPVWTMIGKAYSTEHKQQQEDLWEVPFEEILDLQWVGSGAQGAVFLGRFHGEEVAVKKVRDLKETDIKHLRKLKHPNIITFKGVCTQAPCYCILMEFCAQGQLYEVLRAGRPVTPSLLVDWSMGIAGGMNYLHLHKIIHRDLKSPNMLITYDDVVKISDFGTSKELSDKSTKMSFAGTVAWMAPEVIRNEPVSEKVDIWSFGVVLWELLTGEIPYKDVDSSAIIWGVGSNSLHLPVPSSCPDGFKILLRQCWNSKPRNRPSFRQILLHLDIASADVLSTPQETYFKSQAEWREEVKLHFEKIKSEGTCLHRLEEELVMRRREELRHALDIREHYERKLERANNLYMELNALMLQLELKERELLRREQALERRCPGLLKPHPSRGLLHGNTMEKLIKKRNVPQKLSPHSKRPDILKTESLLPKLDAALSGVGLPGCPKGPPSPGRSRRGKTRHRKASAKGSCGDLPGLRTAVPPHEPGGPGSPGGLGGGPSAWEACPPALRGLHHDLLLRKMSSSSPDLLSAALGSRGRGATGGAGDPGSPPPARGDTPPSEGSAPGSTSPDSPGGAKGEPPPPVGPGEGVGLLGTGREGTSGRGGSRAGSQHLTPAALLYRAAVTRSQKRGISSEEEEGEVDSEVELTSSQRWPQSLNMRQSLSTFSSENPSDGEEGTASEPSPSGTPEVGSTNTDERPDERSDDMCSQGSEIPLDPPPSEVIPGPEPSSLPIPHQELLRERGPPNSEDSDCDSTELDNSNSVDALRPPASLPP
Experimental: The DLK dissociation constants (Kd) have been determined in the KINOMEscan KdELECT Service at DiscoveRx.
A fusion protein of full length of human DLK (amino acids 1-859) and the DNA binding domain of NFkB was expressed in transiently transfected HEK293 cells. From these HEK 293 cells, extracts were prepared in M-PER extraction buffer (Pierce) in the presence of Protease Inhibitor Cocktail Complete (Roche) and Phosphatase Inhibitor Cocktail Set II (Merck) per manufacturers' instructions. The DLK fusion protein was labeled with a chimeric double-stranded DNA tag containing the NFkB binding site (5′-GGGAATTCCC-3′) fused to an amplicon for qPCR readout, which was added directly to the expression extract (the final concentration of DNA-tag in the binding reaction is 0.1 nM).
Streptavidin-coated magnetic beads (Dynal M280) were treated with a biotinylated small molecule ligand for 30 minutes at room temperature to generate affinity resins the binding assays. The liganded beads were blocked with excess biotin and washed with blocking buffer (SeaBlock (Pierce), 1% BSA, 0.05% Tween 20, 1 mM DTT) to remove unbound ligand and to reduce nonspecific binding.
Extracts were used directly in binding assays without any enzyme purification steps at a ≧10,000-fold overall stock dilution (final DNA-tagged enzyme concentration <0.1 nM). Extracts were loaded with DNA-tag and diluted into the binding reaction in a two step process. First extracts were diluted 1:100 in 1× binding buffer (PBS/0.05% Tween 20/10 mM DTT/0.1% BSA/2 μg/ml sonicated salmon sperm DNA) containing 10 nM DNA-tag. This dilution was allowed to equilibrate at room temperature for 15 minutes and then subsequently diluted 1:100 in 1× binding buffer. Test compounds were prepared as 111× stocks in 100% DMSO. Kds were determined using an 11-point 3-fold compound dilution series with three DMSO control points. All compounds for Kd measurements are distributed by acoustic transfer (non-contact dispensing) in 100% DMSO. The compounds were then diluted directly into the assays such that the final concentration of DMSO was 0.9%. All reactions performed in polypropylene 384-well plates. Each was a final volume of 0.02 mL. Assays were incubated with shaking for 1 hour at room temperature. Then the beads were pelleted and washed with wash buffer (1×PBS, 0.05% Tween 20) to remove displaced kinase and test compound. The washed based were re-suspended in elution buffer (1×PBS, 0.05% Tween 20, 0.5 μM non-biotinylated affinity ligand) and incubated at room temperature with shaking for 30 minutes. The kinase concentration in the eluates was measured by qPCR. qPCR reactions were assembled by adding 2.5 μL of kinase eluate to 7.5 μL of qPCR master mix containing 0.15 μM amplicon primers and 0.15 μM amplicon probe. The qPCR protocol consisted of a 10 minute hot start at 95° C., followed by 35 cycles of 95° C. for 15 seconds, 60° C. for 1 minute.
Test compounds were prepared as 111× stocks in 100% DMSO. Kds were determined using an 11-point 3-fold compound dilution series with three DMSO control points. All compounds for Kd measurements are distributed by acoustic transfer (non-contact dispensing) in 100% DMSO. The compounds were then diluted directly into the assays such that the final concentration of DMSO was 0.9%. The Kds were determined using a compound top concentration of 30,000 nM. Kd measurements were performed in duplicate.
Binding constants (Kds) were calculated with a standard dose-response curve using the Hill equation: […]
The Hill Slope was set to −1. Curves were fitted using a non-linear least square fit with the Levenberg-Marquardt algorithm (Levenberg, K., A method for the solution of certain non-linear problems in least squares, Q. Appl. Math. 2, 164-168 (1944)). See also Fabian, M. A. et al. A small molecule-kinase interaction map for clinical kinase inhibitors. Nat. Biotechnol. […]

Row | SMILES | Kd [nM]
1 | CC(C)c1nc(-c2cnc(N)c(OC(F)(F)F)c2)cn1[C@H]1[C@@H]2CN(CC(F)(F)F)C[C@@H]21 [Example 110, 5-(2-isopropyl-1-((1R,5S,6s)-3-(2,2,2-trifluoroethyl)-3-azabicyclo[3.1.0]hexan-6-yl)-1H-imidazol-4-yl)-3-(trifluoromethoxy)pyridin-2-amine] | 280
2 | Nc1ncc(-c2cn([C@H]3[C@@H]4CN(CCF)C[C@@H]43)c(CC3CC3)n2)cc1OC(F)(F)F [Example 101, 5-(2-(cyclopropylmethyl)-1-((1R,5S,6s)-3-(2-fluoroethyl)-3-azabicyclo[3.1.0]hexan-6-yl)-1H-imidazol-4-yl)-3-(trifluoromethoxy)pyridin-2-amine] | 81
3 | CC(C)c1nc(-c2cnc(N)c(C(F)(F)F)c2)cn1CCC1CCOCC1 [Example 35, 5-(2-isopropyl-1-(2-(tetrahydro-2H-pyran-4-yl)ethyl)-1H-imidazol-4-yl)-3-(trifluoromethyl)pyridin-2-amine] | 160
4 | Nc1ncc(-c2cn([C@H]3[C@@H]4CN(CC(F)F)C[C@@H]43)c(CC(F)(F)F)n2)cc1C(F)(F)F [Example 122, 5-(1-((1R,5S,6s)-3-(2,2-difluoroethyl)-3-azabicyclo[3.1.0]hexan-6-yl)-2-(2,2,2-trifluoroethyl)-1H-imidazol-4-yl)-3-(trifluoromethyl)pyridin-2-amine] | 120
5 | Nc1ncc(-c2cn([C@H]3[C@@H]4CN(C5COC5)C[C@@H]43)c(C3CCCC3)n2)cc1OC(F)(F)F [Example 63, 5-(2-cyclopentyl-1-((1R,5S,6s)-3-(oxetan-3-yl)-3-azabicyclo[3.1.0]hexan-6-yl)-1H-imidazol-4-yl)-3-(trifluoromethoxy)pyridin-2-amine] | 140
6 | CC(C)c1nc(-c2cnc(N)c(C(F)(F)F)c2)cn1[C@H]1[C@@H]2CN(C3CCOCC3)C[C@@H]21 [Example 13, 5-(2-isopropyl-1-((1R,5S,6s)-3-(tetrahydro-2H-pyran-4-yl)-3-azabicyclo[3.1.0]hexan-6-yl)-1H-imidazol-4-yl)-3-(trifluoromethyl)pyridin-2-amine] | 78
7 | CC(C)c1nc(-c2cnc(N)c(C(F)(F)F)c2)cn1C1CCCC1 [Example 28, 5-(1-cyclopentyl-2-isopropyl-1H-imidazol-4-yl)-3-(trifluoromethyl)pyridin-2-amine] | 220
8 | COCCN1C[C@@H]2[C@H](C1)[C@H]2n1cc(-c2cnc(N)c(OC(F)F)c2)nc1C1CC1 [Example 107, 5-(2-cyclopropyl-1-((1R,5S,6s)-3-(2-methoxyethyl)-3-azabicyclo[3.1.0]hexan-6-yl)-1H-imidazol-4-yl)-3-(difluoromethoxy)pyridin-2-amine] | 74
9 | Nc1ncc(-c2cn([C@H]3[C@@H]4CN(C5COC5)C[C@@H]43)c(CC3CC3)n2)cc1OC(F)F [Example 87, 5-(2-(cyclopropylmethyl)-1-((1R,5S,6s)-3-(oxetan-3-yl)-3-azabicyclo[3.1.0]hexan-6-yl)-1H-imidazol-4-yl)-3-(difluoromethoxy)pyridin-2-amine] | 110
10 | CC(C)c1nc(-c2cnc(N)c(C(F)(F)F)c2)cn1C1CN(C2COC2)C1 [Example 27, 5-(2-isopropyl-1-(1-(oxetan-3-yl)azetidin-3-yl)-1H-imidazol-4-yl)-3-(trifluoromethyl)pyridin-2-amine] | 270
11 | CC(C)c1nc(-c2cnc(N)c(C(F)(F)F)c2)cn1C1CC(N2CCOCC2)C1 (stereo not shown) [Example 37, 5-(2-isopropyl-1-(3-morpholinocyclobutyl)-1H-imidazol-4-yl)-3-(trifluoromethyl)pyridin-2-amine] | 92
12 | Nc1ncc(-c2cn([C@H]3[C@@H]4CNC[C@@H]43)c(CC3CC3)n2)cc1OC(F)F [Example 86, 5-(1-((1R,5S,6s)-3-azabicyclo[3.1.0]hexan-6-yl)-2-(cyclopropylmethyl)-1H-imidazol-4-yl)-3-(difluoromethoxy)pyridin-2-amine] | 110
13 | CC(C)c1nc(-c2cnc(N)c(C(F)(F)F)c2)cn1[C@H]1[C@@H]2CN(CC(F)F)C[C@@H]21 [Example 17, 5-(1-((1R,5S,6s)-3-(2,2-difluoroethyl)-3-azabicyclo[3.1.0]hexan-6-yl)-2-isopropyl-1H-imidazol-4-yl)-3-(trifluoromethyl)pyridin-2-amine] | 170
14 | Nc1ncc(-c2cn([C@H]3[C@@H]4CN(CC(F)(F)F)C[C@@H]43)c(CC3CC3)n2)cc1OC(F)F [Example 102, 5-(2-(cyclopropylmethyl)-1-((1R,5S,6s)-3-(2,2,2-trifluoroethyl)-3-azabicyclo[3.1.0]hexan-6-yl)-1H-imidazol-4-yl)-3-(difluoromethoxy)pyridin-2-amine] | 280
15 | Nc1ncc(-c2cn([C@H]3[C@@H]4CN(CC(F)F)C[C@@H]43)c(C3CC3)n2)cc1OC(F)(F)F [Example 67, 5-(2-cyclopropyl-1-((1R,5S,6s)-3-(2,2-difluoroethyl)-3-azabicyclo[3.1.0]hexan-6-yl)-1H-imidazol-4-yl)-3-(trifluoromethoxy)pyridin-2-amine] | 130
16 | CC(C)c1nc(-c2cnc(N)c(C(F)(F)F)c2)cn1Cc1cccnc1 [Example 32, 5-(2-isopropyl-1-(pyridin-3-ylmethyl)-1H-imidazol-4-yl)-3-(trifluoromethyl)pyridin-2-amine] | 940
17 | CC(C)c1nc(-c2cnc(N)c(OC(F)(F)F)c2)cn1[C@H]1[C@@H]2CN(CC(F)F)C[C@@H]21 [Example 109, 5-(1-((1R,5S,6s)-3-(2,2-difluoroethyl)-3-azabicyclo[3.1.0]hexan-6-yl)-2-isopropyl-1H-imidazol-4-yl)-3-(trifluoromethoxy)pyridin-2-amine] | 66
18 | CC(C)c1nc(-c2cnc(N)c(C(F)(F)F)c2)cn1C [Example 21, 5-(2-isopropyl-1-methyl-1H-imidazol-4-yl)-3-(trifluoromethyl)pyridin-2-amine] | 640
19 | CC(=O)N1C[C@@H]2[C@H](C1)[C@H]2n1cc(-c2cnc(N)c(C(F)(F)F)c2)nc1C(C)C [Example 14, 1-(6-(4-(6-amino-5-(trifluoromethyl)pyridin-3-yl)-2-isopropyl-1H-imidazol-1-yl)-3-azabicyclo[3.1.0]hexan-3-yl)ethan-1-one] | 170
